Tests used:
Format in all cases: cell-based, Escherichia coli
E. coli ATCC 12435 = experiment: Log kill / surviving titer in aqueous bacterial suspension, plating on TSA; conditions: for Log Kill (Lactic Acid + Surfactant): 15 seconds, 74 to 80 degrees F.; for Log Kill (TSA): lactic acid alone, plated on TSA
Method: The “reaction” (i.e. interaction of antimicrobial agent and the target organism) was initiated by the addition of bacteria to the antimicrobial solution. The reaction was allowed to proceed for the respective time periods listed in Table I (i.e., at least 15 seconds each) and was terminated at the end of that time by adding quench buffer comprising 3.2 M potassium phosphate buffer, pH 7.2. The sample then was evaluated using serial 10-fold dilutions into sterile phosphate buffer as needed to determine, on Tryptic Soy agar (“TSA”), the titer of surviving bacteria. TSA is a medium that allows the growth of most bacteria.
The reduction in the bacterial count is expressed as the “log kill” which is defined as log10 [initial cfu/ml]−log10 [remaining cfu/ml]; where “cfu” refers to “colony forming unit.” All log kills reported herein are positive “base 10.”). Inasmuch as the standard assay mixture contained only ca. 25×10^6 cfu initially (equivalent to 7.398 log) the theoretical maximum kill that can be measured with this assay system is ca. 7.4 log and the practical measuring limit is ca. 6 log. Therefore, high levels of log reduction were monitored by plating reaction mixtures directly (without dilution) onto agar medium. The results are reported in Table I and illustrated in graph format in FIG. 1. […] The tests were replicated with E. coli ATCC 43888, a pathogenic strain of E. coli O157:H7. […]
After incubation for 15 seconds at ambient temperature the reaction was quenched by addition of phosphate buffer and the titer of surviving bacteria was determined by plating on TSA as described in the previous examples. […] The amphoteric and zwitterionic surfactants, which carry a net positive charge under the conditions of the reaction mixture, caused enhancement of the log kill by lactic acid. All anionic surfactants tested caused substantial enhancement of the log kill by lactic acid.

E. coli ATCC 43888 = experiment: Reaction mixture streak plate, visual observation; conditions: 2.5 wt. % lactic acid only (Niaproof 08 0), room temperature
Method: The tests were performed at room temperature.

E. coli SAC-2 [1] = experiment: Log kill / surviving titer in aqueous bacterial suspension, plating on TSA; conditions: for Log Kill (TSA): lactic acid alone, plated on TSA; for Log Kill (Lactic Acid + Surfactant): surfactant 0.2% in 2.5% lactic acid
Method: In each instance a target sample was employed using approximately 50 micro liters of an SAC-2 culture. E. coli “SAC-2,” was a Gram-negative strain isolated from municipal sewage. The tests were performed at room temperature, i.e., 75 deg. F. […] The results of each test sample were evaluated using a series of 10-fold dilutions as needed to determine, on a standard plating agar (TSA), the titer of bacteria that survived the antimicrobial treatment.
The same procedure was employed as in Example 2, but the only agent added to the target solution was Niaproof 08. No lactic acid was employed.
The mixture was then diluted and plated as previously described.
Increasing amounts of reagent were added to a series of test tubes. […] The bacterial titer of each mixture was determined by preparation and plating of serial dilutions on TSA.
[…] […] The amphoteric and zwitterionic surfactants, which carry a net positive charge under the conditions of the reaction mixture, caused enhancement of the log kill by lactic acid. All anionic surfactants tested caused substantial enhancement of the log kill by lactic acid.

E. coli SAC-2 [2] = experiment: Lactic acid treatment followed by contact with surfactant (bile salts) on VRBA; conditions: quenched, then plated on VRBA (bile salts, neutral pH)
Method: (§1) VRBA was designed for the enumeration of coliform bacteria by selecting against most other common bacteria. The principal difference between TSA and VRBA—besides the presence of indicator dyes in VRBA—is the inclusion of bile salts in the VRBA. Historically, bile salts were added to media used to culture intestinal bacteria in order to mimic the intestinal environment more closely. Bile salts also happen to be anionic surfactants.
(§2) Plating of serial dilutions of E. coli SAC-2 made in dilute phosphate buffer (pH 7.2) on VRBA was completed in less than 15 minutes after termination of individual reaction mixtures by addition of quench buffer (phosphate, pH 7.2). Thus, contact with the surfactant in VRBA was made in less than 15 minutes and more than 8 minutes after reaction termination.

[3] = system: E. coli ATCC 43888 (O157:H7); experiment: Log kill in aqueous bacterial suspension, plating on TSA; conditions: for Lactic Acid (Log Kill): 2.5% lactic acid, 73 deg. F.; for Log Kill: lactic acid alone, ca. 75 deg. F., TSA
E. coli ATTC 12435 = experiment: Lactic acid treatment followed by contact with surfactant (bile salts) on VRBA; conditions: quenched, then plated on VRBA (bile salts, neutral pH)
Method: as §1, §2
The observations were confirmed with E. coli ATTC 12435 as follows: […]

E. coli ATCC 14235 = experiment: Log kill in aqueous bacterial suspension, plating on TSA; conditions: lactic acid alone, ca. 75 deg. F.
Method: The tests were performed at ambient temperature (ca. 75 deg. F.). The “reaction” (i.e. interaction of antimicrobial agent and the target organism) was initiated by the addition of bacteria to the antimicrobial solution. The reaction was allowed to proceed for the respective time periods listed in Table I (i.e., at least 15 seconds each) and was terminated at the end of that time by adding quench buffer comprising 3.2 M potassium phosphate buffer, pH 7.2. The sample then was evaluated using serial 10-fold dilutions into sterile phosphate buffer as needed to determine, on Tryptic Soy agar (“TSA”), the titer of surviving bacteria. TSA is a medium that allows the growth of most bacteria.
The reduction in the bacterial count is expressed as the “log kill” which is defined as log10 [initial cfu/ml]−log10 [remaining cfu/ml]; where “cfu” refers to “colony forming unit.” All log kills reported herein are positive “base 10.”). Inasmuch as the standard assay mixture contained only ca. 25×10^6 cfu initially (equivalent to 7.398 log) the theoretical maximum kill that can be measured with this assay system is ca. 7.4 log and the practical measuring limit is ca. 6 log. Therefore, high levels of log reduction were monitored by plating reaction mixtures directly (without dilution) onto agar medium. The results are reported in Table I and illustrated in graph format in FIG. 1. […] The tests were replicated with E. coli ATCC 43888, a pathogenic strain of E. coli O157:H7.

[4] = surfactant 0.2% in 2.5% lactic acid
[5] = 2.5 wt. % lactic acid only (Niaproof 08 0.00)
[6] = 15 seconds, 74 to 80 degrees F.

## CCCCCCCCS(=O)(=O)[O-].[Na+] [Bioterge PAS-8S, sodium octane sulfonate]
E. coli ATCC 12435; [4]
  Log Kill (Lactic Acid + Surfactant): 6.31 log

## CC(O)C(=O)O (centres unmarked) [Lactic Acid, lactic acid, reference compound]
E. coli ATCC 43888
  Description/Observation: Extensive bacterial growth.
E. coli ATCC 12435; 2.5% lactic acid only, paired control of Niaproof 08, 15 seconds, 83 degrees F.
  Log Kill (Lactic Acid): 2.28 log
E. coli ATCC 12435; [5]
  Enhancement Factor: 1.0
  Log Kill: 2.283 log
E. coli ATCC 12435; 15 secs
  Log Kill (TSA): 1.431 log
E. coli ATCC 12435; 30 secs
  Log Kill (TSA): 2.217 log
E. coli ATCC 12435; 45 secs
  Log Kill (TSA): 3.246 log
E. coli ATCC 12435; 60 secs
  Log Kill (TSA): 3.722 log
E. coli SAC-2 [1]; 2.5% lactic acid only, paired control of the surfactant in that line, 15 seconds, 74 to 80 degrees F.
  Log Kill (Lactic Acid): 0.083 log
E. coli SAC-2 [1]; [5]
  Enhancement Factor (log10 kill with lactic acid and surfactant divided by log10 kill with lactic acid only): 1.00
E. coli SAC-2 [1]; 2.5 wt. % lactic acid only (Niaproof 08 0.00), 15 seconds, room temperature
  Log Kill: 0.456 log
E. coli SAC-2 [1]; […] lactic acid only (Niaproof 08 0.00), 15 seconds, 75 degrees F.
  Log Kill […] Lactic Acid: 0.336 log
E. coli SAC-2 [1]; 15 secs
  Log Kill (TSA): 0.188 log
E. coli SAC-2 [1]; 30 secs
  Log Kill (TSA): 0.439 log
E. coli SAC-2 [1]; 45 secs
  Log Kill (TSA): 0.801 log
E. coli SAC-2 [2]; lactic acid 15 secs
  Log Kill (VRBA): 0.509 log
E. coli SAC-2 [2]; lactic acid 30 secs
  Log Kill (VRBA): 2.812 log
E. coli SAC-2 [2]; lactic acid 45 secs
  Log Kill (VRBA): 3.330 log
[3]; 2.5% lactic acid only (sodium lauryl sulfate 0)
  in 2.5% Lactic Acid (Log Kill): 2.2 log
[3]; pH 2.19, 20 secs.
  Lactic Acid (Log Kill): 2.44 log
[3]; pH 2.42, 20 secs.
  Lactic Acid (Log Kill): 2.71 log
[3]; pH 2.59, 20 secs.
  Lactic Acid (Log Kill): 1.81 log
[3]; pH 2.74, 20 secs.
  Lactic Acid (Log Kill): 1.21 log
[3]; pH 2.86, 20 secs.
  Lactic Acid (Log Kill): 0.732 log
[3]; pH 3.24, 20 secs.
  Lactic Acid (Log Kill): 0.117 log
[3]; pH 3.67, 20 secs.
  Lactic Acid (Log Kill): 0.041 log
[3]; […] lactic acid only (sodium lauryl sulfate 0), 15 seconds, 75 degrees F.
  in […] Lactic Acid (Log Kill): 0.403 log
[3]; 15 secs
  Log Kill: 1.24 log
[3]; 30 secs
  Log Kill: 1.76 log
[3]; 45 secs
  Log Kill: 1.89 log
[3]; 60 secs
  Log Kill: 2.63 log
E. coli ATTC 12435; lactic acid 15 secs
  Log Kill (VRBA): 5.328 log
E. coli ATTC 12435; lactic acid 30 secs
  Log Kill (VRBA): 5.328 log
E. coli ATTC 12435; lactic acid 45 secs
  Log Kill (VRBA): 5.328 log
E. coli ATTC 12435; lactic acid 60 secs
  Log Kill (VRBA): 5.328 log
E. coli ATCC 14235; 15 secs
  Log Kill: 1.431 log
E. coli ATCC 14235; 30 secs
  Log Kill: 2.217 log
E. coli ATCC 14235; 45 secs
  Log Kill: 3.246 log
E. coli ATCC 14235; 60 secs
  Log Kill: 3.722 log

## CCCCC(CC)COC(=O)CC(C(=O)OCC(CC)CCCC)S(=O)(=O)[O-].[Na+] (centres unmarked) [Sodium dioctyl sulfosuccinate]
E. coli ATCC 12435; [4]
  Log Kill (Lactic Acid + Surfactant): 6.67 log

## Polyoxyethylene (20) sorbitan monooleate [Tween 80]
E. coli SAC-2 [1]; [6]
  Log Kill (Lactic Acid + Surfactant): 0.18 log

## coco amidoalkyl betaine [Norfox CAPB]
E. coli ATCC 12435; 0.1% CAPB in 2.5% lactic acid
  Log Kill (Lactic Acid + Surfactant): 6.25 log

## coconut based imidazoline, dicarboxylate, sodium salt [Amphoterge K2]
E. coli ATCC 12435; [4]
  Log Kill (Lactic Acid + Surfactant): 2.86 log

## ethoxylated nonylphenol [T-Det N 9.5]
E. coli SAC-2 [1]; [6]
  Log Kill (Lactic Acid + Surfactant): 0.18 log

## phosphate ester of polyoxyalkylated fatty alcohol [Klearfac AA270]
E. coli ATCC 12435; [4]
  Log Kill (Lactic Acid + Surfactant): 6.31 log
E. coli SAC-2 [1]; [6]
  Log Kill (Lactic Acid + Surfactant): 2.56 log
